The results in this text go back to patent US20260284202A1, “CONJUGATES OF SAPONIN AND ANTISENSE OLIGONUCLEOTIDES FOR USE IN THE TREATMENT OF NEURODEGENERATIVE DISEASES” (priority 2023, published 2026).

Format in all cases: cell-based, murine
Series [1] has as its system Sod1 RNA transcripts. The series is described as follows: Sod1 aberrant transcript / exon skip in Neuro-2a cells (PCR gel analysis). On the procedure: Neuro-2a (murine neuroblastoma cells) were cultured in DMEM (PAN-Biotech GmbH) supplemented with 10% fetal bovine serum (FBS, PAN-Biotech GmbH) and Pen/Strep (PAN-Biotech GmbH). For experiments Neuro-2a cells were harvested, resuspended at 70.000 cells/mL and seeded at a density of 42.000 cells/well or 7.000 cells/well for the 24 or 96-well plates (Greiner BioOne). Cells were incubated overnight at 37° C. Before the start of treatment 120 μL or 20 μL media was added per well resp., followed by both saponin and/or PMO from a 10× concentrated stock solution in DPBS (PAN-Biotech GmbH). […] Plates were incubated for 72 hr at 37° C. before the cells of the 24 wp were harvested for gene expression analysis and the cell viability was assessed on the 96 wp.
Total RNA from cells was isolated using TRIzol™ Reagent (Thermo Scientific) according to the manufacturer's instruction. […] The gene expression was determined on 50 ng cDNA using the SapphireAmp Fast PCR Master Mix (Takara) with specific DNA primers, listed in Table A4. The PCR product was separated on a 2% agarose gel and fragments were analysed on the ChemiDoc XRS+ (BioRad) using Image Lab software (BioRad). For quantification of the % exon skip, the signal intensity of the aberrant transcript(s) (Mm Sod1 448 bp and 378 bp was divided over the total signal intensity of the skipped fragment(s)+full length fragment (Mm Sod1 545 bp)×100. […]

In series [2] the test system is Sod1 transcript. The series is described as follows: Remaining full length Sod1 transcript in Neuro-2a cells (qRT-PCR). The following applies: PMO without saponin component. On the procedure: Neuro-2a cells (murine neuroblastoma cell line) were cultured in DMEM (PAN-Biotech GmbH) supplemented with 10% fetal bovine serum (FBS, PAN-Biotech GmbH) and Pen/Strep (PAN-Biotech GmbH). For experiments, Neuro-2a cells were harvested, resuspended at 60.000 cells/mL and seeded at a density of 36.000 cells/well or 6.000 cells/well for the 24 or 96-well plates (Greiner BioOne). Cells were incubated overnight at 37° C. Before the start of treatment, either 210 μL or 35 μL media was added per well resp., followed by the compounds from a 10× concentrated stock solution in DPBS (PAN-Biotech GmbH). […] Plates were incubated for 72 hr at 37° C. before the cells of the 24 wp were harvested for gene expression analysis or exon skip/aberrant transcript analysis and the cell viability was assessed on the 96 wp.
Total RNA from cells was isolated using TRIzol™ Reagent (Thermo Scientific) according to the manufacturer's instruction. […] Gene expression levels of the gene of interest (GOI) and levels of specific housekeeping genes were determined using quantitative real-time PCR assays (qRT-PCR) using iTaq™ Universal SYBR® Green Supermix (BioRad) and the LightCycler 480 II (Roche Diagnostics) with specific DNA primers, listed in Table A6. […] Results are expressed as % relative GOI expression levels after normalization to DPBS treated control cells.
On the technique in general: Quantitative PCR measures a nucleic acid by following its amplification.

Series [3] relates to Malat1 mRNA. The series is described as follows: Malat1 mRNA knockdown in Neuro-2a cells (qRT-PCR). Conditions: for Malat1 RNA still measurable: 20.000 nM Malat1 ASO alone or co-administered with 1 μM of the named molecule; for co-administration enhancement effect on Malat1 ASO efficacy: named molecule at 1 μM with titrated Malat1 ASO; for enhancing effect on Malat1 mRNA reduction in co-administration: named molecule titrated with fixed 200 nM Malat1 ASO. As to the method:
Neuro-2a (murine neuroblastoma cells) were cultured in DMEM (PAN-Biotech GmbH) supplemented with 10% fetal bovine serum (FBS, PAN-Biotech GmbH) and Pen/Strep (PAN-Biotech GmbH). For experiments, Neuro-2a cells were harvested, resuspended at 60.000 cells/mL and seeded at a density of 36.000 cells/well or 6.000 cells/well for the 24- or 96-well plates (Greiner BioOne). Cells were incubated overnight at 37° C. Before the start of treatment, 210 µL or 35 μL medium was added per well, respectively, followed by the conjugates from a 10× concentrated stock solution in DPBS (PAN-Biotech GmbH). Plates were incubated for 72 hr at 37° C. before the cells of the 24-well plates were harvested for gene expression analysis and the cell viability was assessed on the 96-well plates.
(§1) Total RNA from cells was isolated using TRIzol™ Reagent (Thermo Scientific) according to the manufacturer's instruction. Conversion into cDNA was performed using iScript™ cDNA Synthesis Kit (BioRad) using standard protocols. Gene expression levels of the gene of interest (GOI) and levels of specific housekeeping genes were determined using quantitative real-time PCR assays (qRT-PCR) using iTaq™ Universal SYBR® Green Supermix (BioRad) and the Light Cycler 480 II (Roche Diagnostics) with specific DNA primers, listed in Table A3. Each analysis reaction was performed in triplicate. Analysis was done by the ΔCt method to determine GOI expression relative to 2 specific housekeeping control mRNAs. Results are expressed as % relative GOI expression levels after normalization to DPBS treated control cells.
Neuro-2a cells (murine neuroblastoma cell line) were cultured in DMEM (PAN-Biotech GmbH) supplemented with 10% fetal bovine serum (FBS, PAN-Biotech GmbH) and Pen/Strep (PAN-Biotech GmbH). For experiments, Neuro-2a cells were harvested, resuspended at 60.000 cells/mL and seeded at a density of 36.000 cells/well or 6.000 cells/well for the 24 or 96-well plates (Greiner BioOne). Cells were incubated overnight at 37° C. Before the start of treatment, either 210 μL or 35 μL media was added per well resp., followed by the compounds from a 10× concentrated stock solution in DPBS (PAN-Biotech GmbH). In the control wells, or when only one compound was applied in treatment, additional DPBS was added so that the final volume per well was 900 µL or 150 μL for the 24 or 96-well plates (wp), respectively. Plates were incubated for 72 hr at 37° C. before the cells of the 24 wp were harvested for gene expression analysis or exon skip/aberrant transcript analysis and the cell viability was assessed on the 96 wp.
as §1, with “LightCycler” for “Light Cycler”, “A6.” for “A3.”

As for “SOD1 PMO: PMO targeting murine Sod1, SEQ ID: 20, GCCAGCCTAGGACCTACCTTGTGTA (all phosphorodiamidate morpholino (PMO))”, the “induction of aberrant Sod1 transcripts” value in series [1] (PMO alone, up to 50 μM PMO (FIG. 4)) is “did not induce any aberrant Sod1 transcripts”. Further, the “activity (aberrant transcript induction, nonsense mediated mRNA decay)” value in series [1] (without saponin component (FIG. 18C, 18D)) is listed as “did not show any activity at any of the concentrations tested”. Besides, the “reduction of full length Sod1 transcript” value in series [2] is recorded as “not able to reduce transcript”.

`C[C@@H]1CC[C@@]2(OC1)O[C@H]1[C@@H](O)[C@H]3[C@@H]4CC[C@H]5C[C@@H](O[C@@H]6O[C@H](CO)[C@H](O[C@@H]7O[C@H](CO)[C@@H](O)[C@H](O[C@@H]8OC[C@@H](O)[C@H](O)[C@H]8O)[C@H]7O[C@@H]7O[C@H](CO)[C@H](O)[C@H](O[C@@H]8O[C@H](CO)[C@@H](O)[C@H](O)[C@H]8O)[C@H]7O)[C@H](O)[C@H]6O)[C@H](O)C[C@]5(C)[C@H]4CC[C@]3(C)[C@H]1[C@@H]2C` [digitonin]: in series [3] (10.000 nM of named molecule with 200 nM Malat1 ASO, 4320 min), the “reduction in Malat1 mRNA” value was “approximately 70%”. Also, the “Malat1 RNA still measurable” value in series [3] (4320 min) is recorded as 10-15%. Further, the “co-administration enhancement effect on Malat1 ASO efficacy” value (from here on “co-administration enhancement effect”) in series [3] was “not observed”.

Consider `CC1(C)[C@@H](O[C@H]2O[C@H](C(=O)O)[C@@H](O)[C@H](O)[C@H]2O[C@@H]2O[C@H](C(=O)O)[C@@H](O)[C@H](O)[C@H]2O)CC[C@]2(C)[C@H]3C(=O)C=C4[C@@H]5C[C@@](C)(C(=O)O)CC[C@]5(C)CC[C@@]4(C)[C@]3(C)CC[C@@H]12` [glycyrrhizin], for which the “enhancing effect on Malat1 mRNA reduction in co-administration” value in series [3] is reported as “no enhancing effect”.

With `C[C@H]1CC[C@]2(NC1)O[C@H]1C[C@H]3[C@@H]4CC[C@H]5C[C@@H](O[C@@H]6O[C@H](CO)[C@H](O[C@@H]7O[C@H](CO)[C@@H](O)[C@H](O[C@@H]8OC[C@@H](O)[C@H](O)[C@H]8O)[C@H]7O[C@@H]7O[C@H](CO)[C@@H](O)[C@H](O)[C@H]7O)[C@H](O)[C@H]6O)CC[C@]5(C)[C@H]4CC[C@]3(C)[C@H]1[C@@H]2C` [tomatine], the “Malat1 RNA still measurable” value in series [3] (4320 min) is 10-15%. Besides, in series [3], the “co-administration enhancement effect” value is reported as “not observed” and the “enhancing effect on Malat1 mRNA reduction in co-administration” value is “no enhancing effect”.

Regarding `C[C@H]1O[C@@H](O[C@H]2[C@@H](O)C[C@H](O[C@H]3[C@@H](O)C[C@H](O[C@H]4CC[C@@]5(C)[C@H](CC[C@@H]6[C@@H]5C[C@@H](O)[C@]5(C)[C@@H](C7=CC(=O)OC7)CC[C@]65O)C4)O[C@@H]3C)O[C@@H]2C)C[C@H](O)[C@@H]1O` [digoxin], the “Malat1 RNA still measurable” value in series [3] (4320 min) is listed as 10-15%. In series [3], the “co-administration enhancement effect” value is “not observed” and the “enhancing effect on Malat1 mRNA reduction in co-administration” value is “no enhancing effect”.

Consider `CC(=O)OC1C(C)OC(OC2C(C)OC(OC(=O)[C@]34CCC(C)(C)CC3C3=CCC5[C@@]6(C)CC[C@H](OC7OC(C(=O)O)C(O)C(OC8OCC(O)C(O)C8O)C7OC7OC(CO)C(O)C(O)C7O)[C@@](C)(/C=N/NC(=O)CCCCCN7C(=O)CC(SCCO)C7=O)C6CC[C@@]5(C)[C@]3(C)C[C@H]4O)C(OC3OC(C)C(OC4OCC(O)C(OC5OC(CO)C(O)C(O)C5O)C4O)C(O)C3O)C2O)C(O)C1OC1OCC(O)C(O)C1O` (stereo partly drawn) [SO1861-AH-Block], for which, in series [3], the “enhancing effect on Malat1 mRNA reduction in co-administration” value is recorded as “efficacious”. For the same compound, the “concentration above which complete loss of Malat1 mRNA expression is achieved” value in series [3] (titrated with fixed 200 nM Malat1 ASO) is recorded as “above 3200 nM”.
